Key:
[1] = Apparent molecular weight (MWapp)
PSMA = target: T1, PSMA (Homo sapiens, UniProt Q04609); test: PSMA affinity (IC50), competition with [125I]I-BA-KuE on LNCaP cells; assay type: binding; conditions: natLu complex, on ice 60 min, read-out: IC50
T1 construct: PSMA-positive LNCAP cells (300265; Cell Lines Service, Eppelheim, Germany); host or cells: LNCaP cells
Method: A mixture of trypsin and EDTA (0.05%, 0.02%) in PBS (Biochrom) was used in order to harvest cells. Cells were counted with a Neubauer hemocytometer (Paul Marienfeld, Lauda-Königshofen, Germany).
Affinity Determinations (IC50)
In the case of metal-complexed ligands, the crude reaction mixture was diluted analogously, without further purification. Cells were harvested 24±2 hours prior to the experiment and seeded in 24-well plates (1.5×10^5 cells in 1 mL/well). […] The media of both steps were combined in one fraction and represent the amount of free radioligand. Afterwards, the cells were lysed with 250 μL of 1 M aqueous NaOH for at least 10 min. After a washing step (250 μL of 1 M NaOH), both fractions, representing the amount of bound ligand, were united. Quantification of all collected fractions was accomplished in a γ-counter. PSMA-affinity determinations were carried out at least three times per ligand.

[2] = Octanol-water partition coefficient (log D7.4); assay type: physicochemical; conditions: PBS pH 7.4 / n-octanol, 177Lu-labelled
Method: Octanol-Water Partition Coefficient (log D7.4)
Approximately 1 MBq of the labelled tracer was dissolved in 1 mL of a 1:1 mixture (v/v) of PBS (pH 7.4) and n-octanol in a reaction vial (1.5 mL). After vigorous mixing of the suspension for 3 minutes at room temperature, the vial was centrifuged at 15000 g for 3 minutes (Biofuge 15, Heraus Sepatech, Osterode, Germany) and 100 μL aliquots of both layers were measured in a gamma counter. The experiment was repeated at least six times.

[3] = target: T2, Human Serum Albumin (HSA) (Homo sapiens, UniProt P02768); test: Human serum albumin (HSA) binding by high performance affinity chromatography (HPAC); assay type: in vitro ADME; conditions: Chiralpak HSA column
T2 construct: purchased Daicel H13H-2433
Method: Determination of Human Serum Albumin (HSA) Binding by High Performance Affinity Chromatography (HPAC)
HSA binding of the PSMA-addressing ligands was determined according to a previously published procedure via HPLC (Valko, K.; Nunhuck, S.; Bevan, C.; Abraham, M. H.; Reynolds, D. P. Journal of pharmaceutical sciences 2003, 92, 2236-2248). A Chiralpak HSA column (50×3 mm, 5 μm, H13H-2433, Daicel, Tokyo, Japan) was used at a constant flow rate of 0.5 mL/min at rt. Mobile phase A was a freshly prepared 50 mM aqueous solution of NH4OAc (pH 6.9) and mobile phase B was isopropanol (HPLC grade, VWR). The applied gradient for all experiments was 100% A (0 to 3 min), followed by 80% A (3 to 40 min). Prior to the experiment, the column was calibrated using nine reference substances with a HSA binding, known from literature, in the range of 13 to 99% (Valko, K.; Nunhuck, S.; Bevan, C.; Abraham, M. H.; Reynolds, D. P. Journal of pharmaceutical sciences 2003, 92, 2236-2248; Yamazaki, K.; Kanaoka, M. Journal of Pharmaceutical sciences 2004, 93, 1480-1494). All substances, including the examined PSMA ligands, were dissolved in a 1:1 mixture (v/v) of isopropanol and a 50 mM aqueous solution of NH4OAc (pH6.9) with a final concentration of 0.5 mg/mL. Non-linear regression was established with the OriginPro 2016G software (Northampton, United States) (FIG. 8).

LNCaP cells = test: Internalization studies in LNCaP cells; assay type: cell-based; conditions: 37° C., 60 min
Method: PSMA-positive LNCAP cells (300265; Cell Lines Service, Eppelheim, Germany) were cultivated in Dulbecco modified Eagle medium/Nutrition Mixture F-12 with Glutamax (1:1) (DMEM-F12, Biochrom, Berlin, Germany) supplemented with fetal bovine serum (10%, FBS Zellkultur, Berlin, Germany) and kept at 37° C. in a humidified CO2 atmosphere (5%). A mixture of trypsin and EDTA (0.05%, 0.02%) in PBS (Biochrom) was used in order to harvest cells. Cells were counted with a Neubauer hemocytometer (Paul Marienfeld, Lauda-Königshofen, Germany).
For internalization studies, LNCaP cells were harvested 24±2 hours before the experiment and seeded in poly-L-lysine coated 24-well plates (1.25×10^5 cells in 1 mL/well, Greiner Bio-One, Kremsmünster, Austria). After removal of the culture medium, the cells were washed once with 500 μL DMEM-F12 (5% BSA) and left to equilibrate for at least 15 min at 37° C. in […] DMEM-F12 (5% BSA). Each well was treated with either 25 μL of either DMEM-F12 (5% BSA, control) or 25 μL of a 100 μM PMPA (2-(Phosphonomethyl)-pentandioic acid, Tocris Bioscience, Bristol, UK) solution in PBS, for blockade. Next, 25 μL of the radioactive-labelled PSMA inhibitor (10.0 nM in DMEM-F12 (5% BSA)) was added and the cells were incubated at 37° C. for 60 min. The experiment was terminated by placing the 24-well plate on ice for 3 min and consecutive removal of the medium. Each well was carefully washed with 250 μL of ice-cold HBSS. Both fractions from the first steps, representing the amount of free radioligand, were combined. Removal of surface bound activity was accomplished by incubation of the cells with 250 μL of ice-cold PMPA (10 μM in PBS) solution for 5 min and rinsed again with another 250 μL of ice-cold PBS. The internalized activity was determined by incubation of the cells in 250 μL […] aqueous NaOH for at least 10 min. The obtained fractions were combined with those of the subsequent wash step with 250 μL 1 M aqueous NaOH. Each experiment (control and blockade) was performed in triplicate. Free, surface bound and internalized activity was quantified in a y-counter. All internalization studies were accompanied by external reference studies, using ([^125I]I-BA)KuE (c=0.2 nM), which were performed analogously. Data were corrected for non-specific binding and normalized to the specific-internalization observed for the radioiodinated reference compound.

T2 sequence (P02768 25-609): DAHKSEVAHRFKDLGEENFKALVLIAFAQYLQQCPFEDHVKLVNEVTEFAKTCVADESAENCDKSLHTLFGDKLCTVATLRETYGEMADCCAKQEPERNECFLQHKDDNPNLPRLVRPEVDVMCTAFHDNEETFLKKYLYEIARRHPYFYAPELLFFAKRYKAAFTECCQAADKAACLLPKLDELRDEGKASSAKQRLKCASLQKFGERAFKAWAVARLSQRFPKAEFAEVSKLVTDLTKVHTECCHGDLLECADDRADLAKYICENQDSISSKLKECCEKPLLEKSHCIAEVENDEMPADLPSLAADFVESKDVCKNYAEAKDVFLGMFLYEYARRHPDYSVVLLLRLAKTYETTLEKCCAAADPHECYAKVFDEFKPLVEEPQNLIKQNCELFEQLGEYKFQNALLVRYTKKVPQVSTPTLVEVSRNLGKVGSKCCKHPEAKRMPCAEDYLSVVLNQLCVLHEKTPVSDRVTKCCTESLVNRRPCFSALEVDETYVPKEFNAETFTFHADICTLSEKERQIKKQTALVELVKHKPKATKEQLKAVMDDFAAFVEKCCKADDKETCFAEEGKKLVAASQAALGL
T1 sequence (Q04609 whole entry): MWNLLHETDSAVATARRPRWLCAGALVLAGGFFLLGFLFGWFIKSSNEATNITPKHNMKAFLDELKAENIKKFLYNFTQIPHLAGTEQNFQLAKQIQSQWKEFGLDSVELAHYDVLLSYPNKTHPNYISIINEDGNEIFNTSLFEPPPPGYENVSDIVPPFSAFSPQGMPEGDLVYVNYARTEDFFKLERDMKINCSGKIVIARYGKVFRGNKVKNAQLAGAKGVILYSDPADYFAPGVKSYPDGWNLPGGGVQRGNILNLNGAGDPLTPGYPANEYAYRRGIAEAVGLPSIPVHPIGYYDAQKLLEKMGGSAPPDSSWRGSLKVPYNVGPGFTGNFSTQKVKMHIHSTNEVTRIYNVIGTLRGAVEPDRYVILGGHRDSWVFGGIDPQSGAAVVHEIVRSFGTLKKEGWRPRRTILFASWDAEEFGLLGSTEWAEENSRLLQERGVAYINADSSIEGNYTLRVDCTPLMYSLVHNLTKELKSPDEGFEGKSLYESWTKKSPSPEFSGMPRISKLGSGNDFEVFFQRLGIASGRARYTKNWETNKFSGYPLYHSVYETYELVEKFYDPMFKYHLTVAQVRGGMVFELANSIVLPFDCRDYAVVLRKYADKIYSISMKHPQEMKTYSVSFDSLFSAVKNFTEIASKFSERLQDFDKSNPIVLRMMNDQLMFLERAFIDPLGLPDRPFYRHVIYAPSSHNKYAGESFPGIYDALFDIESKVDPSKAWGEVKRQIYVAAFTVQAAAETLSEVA

CC(C)(C)[Si](F)(c1ccc(C(=O)NC[C@@H](NC(=O)CN2CCN(CC(=O)O)CCN(CC(=O)O)CCN(CC(=O)O)CC2)C(=O)N[C@H](CO)C(=O)NCCC(=O)NCCC(=O)NCCC[C@@H](NC(=O)CC[C@H](NC(=O)N[C@@H](CCC(=O)O)C(=O)O)C(=O)O)C(=O)O)cc1)C(C)(C)C [Compound 2C013]
MWapp [1]: 17.6 kDa | IC50 (PSMA): 4.44 nM | logD7.4 [2]: −3.30 ± 0.06 | HSA (HPAC) [3]: 88.6% | Internalization (LNCaP cells; normalized to ([125I]I-BA)KuE): 141 ± 8^ % IBA-KuE | Internalization (LNCaP cells; normalized to reference): 141 ± 8 % IBA

Source: patent US20240165281A1, “DUAL MODE RADIOTRACER AND THERAPEUTICS” (Technische Universität München, priority 2021, published 2024)
